Results published in patent publication US20230085307A1, “PYRIDAZINONE COMPOUND AND HERBICIDE” (NISSAN CHEMICAL CORPORATION, priority 2019, published 2023).

How the values were obtained:
[1] = system: blackgrass; experiment: Test Example 4: herbicidal effect by soil treatment (Table 19, symbol J); format: in vivo, blackgrass (Alopecurus myosuroides)
How it was run: (§1)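 Emulsion of test compound, water-diluted to predetermined amount, sprayed on soil after sowing (seed depth ~1.5 cm, sterilized diluvial soil). Greenhouse, 25–30° C. Effect graded at three weeks post-spray.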

[2] = system: false cleavers; experiment: Test Example 5: herbicidal effect by foliage application, plastic box (Table 20, symbol Q); format: in vivo, false cleavers (Galium spurium); details: foliage application
How it was run: (§2)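 Post-emergence foliar test in sterilized diluvial soil. Compound applied as water-diluted emulsion at a predetermined rate to 14-day-old plants; evaluation at three weeks.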

[3] = system: barnyard grass; experiment: Test Example 5: herbicidal effect by foliage application, plastic box (Table 20, symbol H); format: in vivo, barnyard grass (Echinochloa crus-galli); details: foliage application
How it was run: as §2

[4] = system: windgrass; experiment: Test Example 5: herbicidal effect by foliage application, plastic box (Table 20, symbol L); format: in vivo, windgrass (Apera spica-venti); details: foliage application
How it was run: as §2

[5] = system: velvetleaf; experiment: Test Example 4: herbicidal effect by soil treatment (Table 19, symbol M); format: in vivo, velvetleaf (Abutilon theophrasti)
How it was run: as §1

[6] = system: chickweed; experiment: Test Example 5: herbicidal effect by foliage application, plastic box (Table 20, symbol P); format: in vivo, common chickweed (Stellaria media); details: foliage application
How it was run: as §2

[7] = system: late watergrass; experiment: Test Example 2: herbicidal activity, application during weed generation under submerged conditions (Table 17, symbol A); format: in vivo, late watergrass (Echinochloa oryzicola); details: AAH 320 g/ha; application during weed generation, submerged conditions
How it was run: (§3)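 Steps: fill Wagner pots with alluvial soil; add water to give 4 cm depth; sow the species mixed; grow under glass at 25–30° C.; at 1–2 leaves apply water-diluted emulsion formulation to the water surface at a fixed herbicide amount; score after 3 weeks.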

[8] = system: persian speedwell; experiment: Test Example 5: herbicidal effect by foliage application, plastic box (Table 20, symbol R); format: in vivo, Persian speedwell (Veronica persica); details: foliage application
How it was run: as §2

[9] = system: redroot pigweed; experiment: Test Example 4: herbicidal effect by soil treatment (Table 19, symbol N); format: in vivo, redroot pigweed (Amaranthus retroflexus)
How it was run: as §1

[10] = system: redroot pigweed; experiment: Test Example 5: herbicidal effect by foliage application, plastic box (Table 20, symbol N); format: in vivo, redroot pigweed (Amaranthus retroflexus); details: foliage application
How it was run: as §2

[11] = system: wild oat; experiment: Test Example 4: herbicidal effect by soil treatment (Table 19, symbol I); format: in vivo, wild oat (Avena fatua)
How it was run: as §1

[12] = system: persian speedwell; experiment: Test Example 4: herbicidal effect by soil treatment (Table 19, symbol R); format: in vivo, Persian speedwell (Veronica persica)
How it was run: as §1

[13] = system: green foxtail; experiment: Test Example 4: herbicidal effect by soil treatment (Table 19, symbol G); format: in vivo, green foxtail (Setaria viridis)
How it was run: as §1

[14] = system: southern crabgrass; experiment: Test Example 4: herbicidal effect by soil treatment (Table 19, symbol F); format: in vivo, southern crabgrass (Digitaria ciliaris)
How it was run: as §1

[15] = system: barnyard grass; experiment: Test Example 4: herbicidal effect by soil treatment (Table 19, symbol H); format: in vivo, barnyard grass (Echinochloa crus-galli)
How it was run: as §1

[16] = system: oval-leafed pondweed; experiment: Test Example 2: herbicidal activity, application during weed generation under submerged conditions (Table 17, symbol C); format: in vivo, oval-leafed pondweed (Monochoria vaginalis); details: AAH 320 g/ha; application during weed generation, submerged conditions
How it was run: as §3

[17] = system: Japanese bulrush; experiment: Test Example 2: herbicidal activity, application during weed generation under submerged conditions (Table 17, symbol B); format: in vivo, Japanese bulrush (Schoenoplectus juncoides); details: AAH 320 g/ha; application during weed generation, submerged conditions
How it was run: as §3

[18] = system: false cleavers; experiment: Test Example 4: herbicidal effect by soil treatment (Table 19, symbol Q); format: in vivo, false cleavers (Galium spurium)
How it was run: as §1

[19] = amount of applied herbicide 320 g/ha
[20] = AAH 320 g/ha, evaluated three weeks after application
[21] = 320 g/ha, three weeks after application
[22] = 320 g/ha, 3 weeks after application
[23] = AAH 320 g/ha, three weeks after application

## COc1cccc(S(=O)(=O)Oc2c(C)nn(C)c(=O)c2-c2c(-c3ccc(OC(F)F)cc3)sc3ccc(F)cc23)c1 [2-313]
[1]; [19]
  herbicidal effect on J: blackgrass: 0 (Herbicidal rate of 5% or less (almost no effect))
[2]; [20]
  Q: false cleavers, herbicidal effect (criteria 0-5): 5 (Herbicidal rate of 90% or more (almost completely withered))
[3]; [20]
  H: barnyard grass, herbicidal effect (criteria 0-5): 5 (Herbicidal rate of 90% or more (almost completely withered))
[4]; [20]
  L: windgrass, herbicidal effect (criteria 0-5): 2 (Herbicidal rate of 20% or more and less than 40%)
[5]; [19]
  herbicidal effect on M: velvetleaf: 4 (Herbicidal rate of 70% or more and less than 90%)
[6]; [20]
  P: chickweed, herbicidal effect (criteria 0-5): 5 (Herbicidal rate of 90% or more (almost completely withered))
[7]
  herbicidal effect rating, A: late watergrass: 3 (Herbicidal rate of 40% or more and less than 70%)
[8]; [20]
  R: persian speedwell, herbicidal effect (criteria 0-5): 5 (Herbicidal rate of 90% or more (almost completely withered))
[9]; [19]
  herbicidal effect on N: redroot pigweed: 5 (Herbicidal rate of 90% or more (almost completely withered))
[10]; [20]
  N: redroot pigweed, herbicidal effect (criteria 0-5): 5 (Herbicidal rate of 90% or more (almost completely withered))
[11]; [19]
  herbicidal effect on I: wild oat: 0 (Herbicidal rate of 5% or less (almost no effect))
[12]; [19]
  herbicidal effect on R: persian speedwell: 5 (Herbicidal rate of 90% or more (almost completely withered))
[13]; [19]
  herbicidal effect on G: green foxtail: 2 (Herbicidal rate of 20% or more and less than 40%)
[14]; [19]
  herbicidal effect on F: southern crabgrass: 0 (Herbicidal rate of 5% or less (almost no effect))
[15]; [19]
  herbicidal effect on H: barnyard grass: 1 (Herbicidal rate of 5% or more and less than 20%)
[16]
  herbicidal effect rating, C: oval-leafed pondweed: 3 (Herbicidal rate of 40% or more and less than 70%)
[17]
  herbicidal effect rating, B: Japanese bulrush: 3 (Herbicidal rate of 40% or more and less than 70%)

## CCCOc1ccc(-c2sc3ccccc3c2-c2c(O)c(C)nn(C)c2=O)cc1 [1-019]
[1]; [19]
  herbicidal effect rating, J: blackgrass: 0 (Herbicidal rate of 5% or less (almost no effect))
[2]; [21]
  herbicidal effect grade, Q: false cleavers: 3 (Herbicidal rate of 40% or more and less than 70%)
[3]; [21]
  herbicidal effect grade, H: barnyard grass: 5 (Herbicidal rate of 90% or more (almost completely withered))
[4]; [21]
  herbicidal effect grade, L: windgrass: 5 (Herbicidal rate of 90% or more (almost completely withered))
[5]; [19]
  herbicidal effect rating, M: velvetleaf: 0 (Herbicidal rate of 5% or less (almost no effect))
[6]; [21]
  herbicidal effect grade, P: chickweed: 5 (Herbicidal rate of 90% or more (almost completely withered))
[7]
  herbicidal effect rating, A: late watergrass: 3 (Herbicidal rate of 40% or more and less than 70%)
[8]; [21]
  herbicidal effect grade, R: persian speedwell: 5 (Herbicidal rate of 90% or more (almost completely withered))
[9]; [19]
  herbicidal effect rating, N: redroot pigweed: 4 (Herbicidal rate of 70% or more and less than 90%)
[10]; [21]
  herbicidal effect grade, N: redroot pigweed: 5 (Herbicidal rate of 90% or more (almost completely withered))
[11]; [19]
  herbicidal effect rating, I: wild oat: 0 (Herbicidal rate of 5% or less (almost no effect))
[12]; [19]
  herbicidal effect rating, R: persian speedwell: 5 (Herbicidal rate of 90% or more (almost completely withered))
[13]; [19]
  herbicidal effect rating, G: green foxtail: 2 (Herbicidal rate of 20% or more and less than 40%)
[14]; [19]
  herbicidal effect rating, F: southern crabgrass: 0 (Herbicidal rate of 5% or less (almost no effect))
[15]; [19]
  herbicidal effect rating, H: barnyard grass: 3 (Herbicidal rate of 40% or more and less than 70%)
[18]; [19]
  herbicidal effect rating, Q: false cleavers: 0 (Herbicidal rate of 5% or less (almost no effect))
[17]
  herbicidal effect rating, B: Japanese bulrush: 4 (Herbicidal rate of 70% or more and less than 90%)

## CCCC(=O)Oc1c(C)nn(C)c(=O)c1-c1c(-c2ccc(OC)cc2)sc2ccc(F)cc12 [2-027]
[1]; 320 g/ha
  herbicidal effect rating, J: blackgrass: 0 (Herbicidal rate of 5% or less (almost no effect))
[2]; [22]
  effect on false cleavers (Q): 0 (Herbicidal rate of 5% or less (almost no effect))
[3]; [22]
  effect on barnyard grass (H): 5 (Herbicidal rate of 90% or more (almost completely withered))
[4]; [22]
  effect on windgrass (L): 0 (Herbicidal rate of 5% or less (almost no effect))
[5]; 320 g/ha
  herbicidal effect rating, M: velvetleaf: 3 (Herbicidal rate of 40% or more and less than 70%)
[7]
  herbicidal effect rating, A: late watergrass: 3 (Herbicidal rate of 40% or more and less than 70%)
[8]; [22]
  effect on persian speedwell (R): 5 (Herbicidal rate of 90% or more (almost completely withered))
[9]; 320 g/ha
  herbicidal effect rating, N: redroot pigweed: 5 (Herbicidal rate of 90% or more (almost completely withered))
[11]; 320 g/ha
  herbicidal effect rating, I: wild oat: 2 (Herbicidal rate of 20% or more and less than 40%)
[12]; 320 g/ha
  herbicidal effect rating, R: persian speedwell: 5 (Herbicidal rate of 90% or more (almost completely withered))
[13]; 320 g/ha
  herbicidal effect rating, G: green foxtail: 4 (Herbicidal rate of 70% or more and less than 90%)
[14]; 320 g/ha
  herbicidal effect rating, F: southern crabgrass: 3 (Herbicidal rate of 40% or more and less than 70%)
[15]; 320 g/ha
  herbicidal effect rating, H: barnyard grass: 4 (Herbicidal rate of 70% or more and less than 90%)
[18]; 320 g/ha
  herbicidal effect rating, Q: false cleavers: 0 (Herbicidal rate of 5% or less (almost no effect))
[16]
  herbicidal effect rating, C: oval-leafed pondweed: 5 (Herbicidal rate of 90% or more (almost completely withered))
[17]
  herbicidal effect rating, B: Japanese bulrush: 4 (Herbicidal rate of 70% or more and less than 90%)

## C=CCOc1ccccc1-c1sc2ccccc2c1-c1c(O)c(C)nn(C)c1=O [1-110]
[1]; [19]
  herbicidal effect rating, J: blackgrass: 2 (Herbicidal rate of 20% or more and less than 40%)
[2]; [23]
  Q: false cleavers, herbicidal effect: 5 (Herbicidal rate of 90% or more (almost completely withered))
[3]; [23]
  H: barnyard grass, herbicidal effect: 3 (Herbicidal rate of 40% or more and less than 70%)
[4]; [23]
  L: windgrass, herbicidal effect: 3 (Herbicidal rate of 40% or more and less than 70%)
[5]; [19]
  herbicidal effect rating, M: velvetleaf: 1 (Herbicidal rate of 5% or more and less than 20%)
[6]; [23]
  P: chickweed, herbicidal effect: 5 (Herbicidal rate of 90% or more (almost completely withered))
[7]
  herbicidal effect rating, A: late watergrass: 3 (Herbicidal rate of 40% or more and less than 70%)
[8]; [23]
  R: persian speedwell, herbicidal effect: 5 (Herbicidal rate of 90% or more (almost completely withered))
[9]; [19]
  herbicidal effect rating, N: redroot pigweed: 0 (Herbicidal rate of 5% or less (almost no effect))
[10]; [23]
  N: redroot pigweed, herbicidal effect: 0 (Herbicidal rate of 5% or less (almost no effect))
[11]; [19]
  herbicidal effect rating, I: wild oat: 1 (Herbicidal rate of 5% or more and less than 20%)
[12]; [19]
  herbicidal effect rating, R: persian speedwell: 3 (Herbicidal rate of 40% or more and less than 70%)
[13]; [19]
  herbicidal effect rating, G: green foxtail: 3 (Herbicidal rate of 40% or more and less than 70%)
[14]; [19]
  herbicidal effect rating, F: southern crabgrass: 3 (Herbicidal rate of 40% or more and less than 70%)
[15]; [19]
  herbicidal effect rating, H: barnyard grass: 3 (Herbicidal rate of 40% or more and less than 70%)
[16]
  herbicidal effect rating, C: oval-leafed pondweed: 0 (Herbicidal rate of 5% or less (almost no effect))
[17]
  herbicidal effect rating, B: Japanese bulrush: 2 (Herbicidal rate of 20% or more and less than 40%)
